pIC50: −log10 of the molar value. Counter-ions that a name gives are not always drawn.

This assay addresses pre-formed polyQ46 or Exon1-polyQ46 aggregates (mHTT) (Homo sapiens, UniProt P42858, INS38QQQQQQQQQQQQQQQQQQQQQQQQQ). The assay can be described thus: Q46_RBA radioligand binding assay (displacement of [3H]-radioligand). As for the experimental part:
Binding of W to mHTT. A radioligand binding assay was developed to screen for compounds which can efficiently displace a radioligand detailed elsewhere (see, e.g., U.S. Patent Publication No. from US 2017/0292150) pre-formed polyQ46 or Exon1-polyQ46 aggregates (Q46_RBA).
Aggregation of polyQ peptides is initiated by cleavage of the tag from a GST-polyQ46 or from a MBP-Exon1-polyQ46 fusion protein. The pre-formed aggregates are then incubated with compounds which compete with the [^3H]-radiolabelled ligand for binding to the aggregates. The readout is a scintillation based MicroBeta measurement of radioligand bound to aggregates. The activity was indicated as: +++, <100 nM; ++, 100-500 nM, +, >500 nM.
(In a radioligand displacement assay an active substance lowers the binding of a labelled ligand.)

By pIC50 is commonly meant −log10 of the IC50, conventionally taken in molar units. Consider `CNc1c(-c2cn3c(n2)sc2cc(OCCOCCOCCOc4cc(-c5scnc5C)ccc4CNC(=O)[C@@H]4C[C@@H](O)CN4C(=O)[C@H](C(C)C)N4Cc5ccccc5C4=O)ccc23)nc2cc(C#N)ccn12` [Compound 7], for which the pIC50 is 6.30 to 7.00.

Compound `Cc1ccc2nc(-c3ccc(NCCOCCOCCOCCNc4cccc5c4C(=O)N(C4CCC(=O)NC4=O)C5=O)cc3)sc2c1` (stereo not drawn) [Compound 68] showed a pIC50 of 6.30 to 7.00.

`Cc1ccc2nc(-c3ccc(NCCOCCOCC(=O)N[C@H](C(=O)N4C[C@H](O)C[C@H]4C(=O)NCc4ccc(-c5scnc5C)cc4)C(C)(C)C)cc3)sc2c1` [Compound 64] had a pIC50 of under 6.30.

The compound `CC(C)C[C@H](NC(=O)[C@@H](O)[C@H](N)Cc1ccccc1)C(=O)NCCOCCOCCOc1ccc(COc2ccc3oc(-c4ccc(=O)n(C)n4)nc3c2)nc1` [Compound 49, (2S)-2-[(2S,3R)-3-Azaniumyl-2-hydroxy-4-phenylbutanamido]-4-methyl-N-{2-[2-(2-{[6-({[2-(1-methyl-6-oxo-1,6-dihydropyridazin-3-yl)-1,3-benzoxazol-5-yl]oxy}methyl)pyridin-3-yl]oxy}ethoxy)ethoxy]ethyl}pentanamide formate] had a pIC50 of over 7.00.

In turn, `CC(C)C[C@H](NC(=O)[C@@H](O)[C@H](N)Cc1ccccc1)C(=O)NCCOCCOCCOCCOCCOc1ccc(C(=O)Nc2ccc3oc(-c4ccc(=O)n(C)n4)nc3c2)nc1` [Compound 15] showed a pIC50 of over 7.00.

Regarding `COc1ccc(NC(=O)c2ccnc(N(CCOCCOCCNC(=O)[C@H](CC(C)C)NC(=O)[C@@H](O)[C@H](N)Cc3ccccc3)c3ccccc3)n2)cn1` [Compound 69], the pIC50 was under 6.30.

In turn, `CC(C)C[C@H](NC(=O)[C@@H](O)[C@H](N)Cc1ccccc1)C(=O)NCCOCCOc1ccc(C(=O)Nc2ccc3oc(-c4ccc(=O)n(C)n4)nc3c2)nc1` [Compound 12] showed a pIC50 of over 7.00.

`CC(C)C[C@H](NC(=O)[C@@H](O)[C@H](N)Cc1ccccc1)C(=O)NCCOCCOCCOc1ccc(C(=O)Nc2ccc3oc(-c4ccc(=O)n(C)n4)nc3c2)nc1` (stereo in doubt) [Compound 13] gave a pIC50 of over 7.00.

For `CNc1c(-c2cn3c(n2)sc2cc(OCCOCCOCCOCCOCC(=O)N[C@H](C(=O)N4C[C@H](O)C[C@H]4C(=O)NCc4ccc(-c5scnc5C)cc4)C(C)(C)C)ccc23)nc2cc(C#N)ccn12` [Compound 4, (2S,4R)-1-((S)-2-(tert-butyl)-17-((2-(7-cyano-3-(methylamino)-imidazo[1,2-a]pyridin-2-yl)benzo[d]imidazo[2,1-b]thiazol-7-yl)oxy)-4-oxo-6,9,12,15-tetraoxa-3-azaheptadecan-1-oyl)-4-hydroxy-N-(4-(4-methylthiazol-5-yl)benzyl)-pyrrolidine-2-carboxamide], the pIC50 is 6.30 to 7.00.

For `CC(C)C[C@H](NC(=O)[C@@H](O)[C@H](N)Cc1ccccc1)C(=O)NCCOCCOCCOCCOc1ccc(C(=O)Nc2ccc3oc(-c4ccc(=O)n(C)n4)nc3c2)nc1` [Compound 14], the pIC50 was over 7.00.

As for `CNc1c(-c2cn3c(n2)sc2cc(OCCOCCNc4cccc5c4C(=O)N(C4CCC(=O)NC4=O)C5=O)ccc23)nc2cc(C#N)ccn12` (stereo not drawn) [Compound 9], the pIC50 is over 7.00.

In turn, `CC(C)C[C@H](NC(=O)[C@@H](O)[C@H](N)Cc1ccccc1)C(=O)NCCOCCOCCOc1ccc(NC(=O)c2ccn3c(n2)nc2ccccc23)cn1` [Compound 59, N-{6-[2-(2-{2-[(2S)-2-[(2S,3R)-3-amino-2-hydroxy-4-phenylbutanamido]-4-methylpentanamido]ethoxy}ethoxy)ethoxy]pyridin-3-yl}-1,8,10-triazatricyclo[7.4.0.0^2,7]trideca-2,4,6,8,10,12-hexaene-11-carboxamide] gave a pIC50 of over 7.00.

Take `CC(C)C[C@H](NC(=O)[C@@H](O)[C@H](N)Cc1ccccc1)C(=O)NCCOCCOCCOCCOCCOCCOCCOCCOCCOc1ccc(C(=O)Nc2ccc3oc(-c4ccc(=O)n(C)n4)nc3c2)nc1` [Compound 17]: the pIC50 is over 7.00.

The compound `Cc1ccc2nc(-c3ccc(NCCOCCOCCNc4cccc5c4C(=O)N(C4CCC(=O)NC4=O)C5=O)cc3)sc2c1` (stereo not drawn) [Compound 65] gave a pIC50 of 6.30 to 7.00.

`CC(C)C[C@H](NC(=O)[C@@H](O)[C@H](N)Cc1ccccc1)C(=O)NCCOCCOCCOCCOc1ccc(C(=O)Nc2ccc3oc(-c4cccnc4)nc3c2)nc1` [Compound 62, 5-{2-[2-(2-{2-[(2S)-2-[(2S,3R)-3-Azaniumyl-2-hydroxy-4-phenylbutanamido]-4-methylpentanamido]ethoxy}ethoxy)ethoxy]ethoxy}-N-[2-(pyridin-3-yl)-1,3-benzoxazol-5-yl]pyridine-2-carboxamide diformate] showed a negative logarithm of the IC50 (pIC50) of over 7.00.

Compound `CNc1c(-c2cn3c(n2)sc2cc(OCCOc4cc(-c5scnc5C)ccc4CNC(=O)[C@@H]4C[C@@H](O)CN4C(=O)[C@H](C(C)C)N4Cc5ccccc5C4=O)ccc23)nc2cc(C#N)ccn12` [Compound 5, (2S,4R)—N-(2-(2-((2-(7-cyano-3-(methylamino)imidazo[1,2-a]pyridin-2-yl)benzo[d]imidazo[2,1-b]thiazol-7-yl)oxy)ethoxy)-4-(4-methylthiazol-5-yl)benzyl)-4-hydroxy-1-((S)-3-methyl-2-(1-oxoisoindolin-2-yl)butanoyl)pyrrolidine-2-carboxamide] showed a pIC50 of 6.30 to 7.00.

Take `CC(C)C[C@H](NC(=O)CCCc1ccccc1)C(=O)NCCOCCOCCOc1ccc(COc2ccc3oc(-c4ccc(=O)n(C)n4)nc3c2)nc1` [Compound 52, (2S)-4-Methyl-N-{2-[2-(2-{[6-({[2-(1-methyl-6-oxo-1,6-dihydropyridazin-3-yl)-1,3-benzoxazol-5-yl]oxy}methyl)pyridin-3-yl]oxy}ethoxy)ethoxy]ethyl}-2-(4-phenylbutanamido)pentanamide]: the pIC50 was over 7.00.

In turn, `CC(C)C[C@H](NC(=O)[C@@H](O)[C@H](N)Cc1ccccc1)C(=O)NCCOCCOCCOCCOCCOCCOc1ccc(C(=O)Nc2ccc3oc(-c4ccc(=O)n(C)n4)nc3c2)nc1` [Compound 16] had a pIC50 of over 7.00.

Turning to `COc1ccc(C(=O)Nc2ccc3oc(-c4ccc(=O)n(CCOCCOCCNC(=O)[C@H](CC(C)C)NC(=O)[C@@H](O)[C@H](N)Cc5ccccc5)n4)nc3c2)nc1` [Compound 50, N-(2-{1-[2-(2-{2-[(2S)-2-[(2S,3R)-3-Amino-2-hydroxy-4-phenylbutanamido]-4-methylpentanamido]ethoxy}ethoxy)ethyl]-6-oxo-1,6-dihydropyridazin-3-yl}-1,3-benzoxazol-5-yl)-5-methoxypyridine-2-carboxamide], the pIC50 was over 7.00.

Compound `Cc1ncsc1-c1ccc(CNC(=O)[C@H]2C[C@H](O)CN2C(=O)[C@H](NC(=O)CCOCCOCCOCCOCCOCCOc2ccc(C(=O)Nc3ccc4oc(-c5ccc(=O)n(C)n5)nc4c3)nc2)C(C)(C)C)cc1` [Compound 41] showed a pIC50 of over 7.00.

`Cc1ncsc1-c1ccc(CNC(=O)[C@H]2C[C@H](O)CN2C(=O)[C@H](NC(=O)COCCOc2ccc(C(=O)Nc3ccc4oc(-c5ccc(=O)n(C)n5)nc4c3)nc2)C(C)(C)C)cc1` [Compound 51, 5-[2-({[(2R)-1-[(2R,4S)-4-Hydroxy-2-({[4-(4-methyl-1,3-thiazol-5-yl)phenyl]methyl}carbamoyl)pyrrolidin-1-yl]-3,3-dimethyl-1-oxobutan-2-yl]carbamoyl}methoxy)ethoxy]-N-[2-(1-methyl-6-oxo-1,6-dihydropyridazin-3-yl)-1,3-benzoxazol-5-yl]pyridine-2-carboxamide] showed a pIC50 of over 7.00.

`Cc1ncsc1-c1ccc(CNC(=O)[C@H]2C[C@H](O)CN2C(=O)[C@H](NC(=O)CCOCCOCCOCCOCCOCCOCCOCCOCCOCCOCCOCCOCCOCCOCCOCCOCCOc2ccc(C(=O)Nc3ccc4oc(-c5ccc(=O)n(C)n5)nc4c3)nc2)C(C)(C)C)cc1` [Compound 27] gave a pIC50 of 6.30 to 7.00.

The compound `CNc1c(-c2cn3c(n2)sc2cc(OCCOCCOCCOCCOc4cc(-c5scnc5C)ccc4CNC(=O)[C@@H]4C[C@@H](O)CN4C(=O)[C@H](C(C)C)N4Cc5ccccc5C4=O)ccc23)nc2cc(C#N)ccn12` [Compound 8] showed a pIC50 of 6.30 to 7.00.

With `Cc1ccc2nc(-c3ccc(NCCOCCOCCOc4cccc5c4C(=O)N(C4CCC(=O)NC4=O)C5=O)cc3)sc2c1` (stereo not drawn) [Compound 63], the pIC50 is over 7.00.

In the case of `CNc1c(-c2cn3c(n2)sc2cc(OCCOCCOc4cc(-c5scnc5C)ccc4CNC(=O)[C@@H]4C[C@@H](O)CN4C(=O)[C@H](C(C)C)N4Cc5ccccc5C4=O)ccc23)nc2cc(C#N)ccn12` [Compound 6], the pIC50 was 6.30 to 7.00.

`Cc1ccc2nc(-c3ccc(NCCOCCOCCOc4cc(-c5scnc5C)ccc4CNC(=O)C4C[C@@H](O)CN4C(=O)[C@H](C(C)C)N4Cc5ccccc5C4=O)cc3)sc2c1` (stereo partly drawn) [Compound 67] showed a pIC50 of 6.30 to 7.00.

Take `CC(C)C[C@H](NC(=O)[C@@H](O)[C@H](N)Cc1ccccc1)C(=O)NCCOCCOCCNc1ccc(NC(=O)c2ccn3c(n2)nc2ccccc23)cn1` [Compound 60, N-(6-{[2-(2-{2-[(2S)-2-[(2S,3R)-3-azaniumyl-2-hydroxy-4-phenylbutanamido]-4-methylpentanamido]ethoxy}ethoxy)ethyl]amino}pyridin-3-yl)-1,8,10-triazatricyclo[7.4.0.0^2,7]trideca-2,4,6,8,10,12-hexaene-11-carboxamide formate]: the negative logarithm of the IC50 (pIC50) is over 7.00.

Consider `Cc1ncsc1-c1ccc(CNC(=O)[C@@H]2C[C@@H](O)CN2C(=O)[C@@H](NC(=O)COCCOc2ccc(C(=O)Nc3ccc4oc(-c5ccc(=O)n(C)n5)nc4c3)nc2)C(C)(C)C)cc1` [Compound 29], for which the pIC50 was over 7.00.

With `CC(C)C[C@H](NC(=O)[C@@H](O)[C@H](N)Cc1ccccc1)C(=O)NCCOCCOCCOc1ccc(C(=O)Nc2ccc3oc(-c4cccnc4)nc3c2)nc1` [Compound 61], the pIC50 is over 7.00.

In the case of `Cc1ccc2nc(-c3ccc(NC(=O)COCCOCCNC(=O)[C@H](CC(C)C)NC(=O)[C@@H](O)[C@H](N)Cc4ccccc4)cc3)sc2c1` [Compound 66], the negative logarithm of the IC50 (pIC50) was 6.30 to 7.00.

Source of the values: patent publication US11389438B2 (CHDI Foundation, Inc., priority 2019, dated 2022).
